# Patent US9656990B2, “Cathepsin cysteine protease inhibitors” (Merck Sharp & Dohme Corp., priority 2014, dated 2017)
# Columns and labels:
# [1] = molecular target: human cathepsin K (UniProt P43236, Y175D/V274L, species not given); experiment: Cathepsin K Assay; format: biochemical; conditions: IP from dose response curve; Z-Leu-Arg-AMC substrate, pH 5.5; read-out: hrbCat K (IP (nM))
# [2] = molecular target: T1, human cathepsin F (Homo sapiens, UniProt Q9UBX1); experiment: Cathepsin F Assay; format: biochemical; conditions: IP from dose response curve; Z-Phe-Arg-AMC substrate, pH 5.5; read-out: hCat F (IP (nM))
# T1 sequence (Q9UBX1 271-484): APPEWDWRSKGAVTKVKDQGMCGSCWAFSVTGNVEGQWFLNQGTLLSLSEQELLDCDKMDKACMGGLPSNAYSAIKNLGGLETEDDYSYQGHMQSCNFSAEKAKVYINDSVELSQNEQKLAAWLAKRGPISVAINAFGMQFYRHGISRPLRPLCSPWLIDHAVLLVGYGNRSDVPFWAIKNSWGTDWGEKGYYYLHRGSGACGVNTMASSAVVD
# Method: Serial dilutions (1/3) from 500 μM down to 0.025 μM of test compounds were prepared in dimethyl sulfoxide (DMSO). Then 0.5 μL of DMSO from each dilution were added to 18.75 μL of assay buffer (MES, 50 mM (pH 5.5); EDTA, 2.5 mM; DTT, 2.5 mM and 10% DMSO) containing human cathepsin F (10 nM) in assay buffer solution. The assay solutions were mixed for 5-10 seconds on a shaker plate and incubated for 15 minutes at room temperature. Z-Phe-Arg-AMC (8 μM) in 6.25 μL of assay buffer was added to the assay solutions. Hydrolysis of the coumarin leaving group (AMC) was followed by spectrofluorometry (Exλ=360 nm; Emλ=460 nm) for 20 minutes. Percent of inhibition were calculated by fitting experimental values to standard mathematical model for dose response curve.
Structure (SMILES),IC50 [1],IC50 [2]
"Cc1c(-c2ccc(N3CCS(=O)(=O)CC3)cc2)c([C@@H]2CCCC[C@H]2C(=O)N[C@H](C#N)C(C)C)nn1-c1ncccc1F [Example 43, (1R,2R)-N-((S)-1-cyano-2-methylpropyl)-2-(4-(4-(1,1-dioxidothiomorpholino)phen-yl)-1-(3-fluoropyridin-2-yl)-5-methyl-1H-pyrazol-3-yl)cyclohexanecarboxamide]",12.1 nM,4550 nM
"CN=S1(=O)CCN(c2ccc(-c3cn(-c4ccc(F)cn4)nc3[C@@H]3CCCC[C@H]3C(=O)NC3(C#N)CC3)cc2)CC1 [Example 156, (1R,2R)-N-(1-cyanocyclopropyl)-2-(1-(5-fluoropyridin-2-yl)-4-(4-(1-(methylimino)-1-oxidothiomorpholino)phenyl)-1H-pyrazol-3-yl)cyclohexanecarboxamide]",1.47 nM,945 nM
"N#CC1(NC(=O)[C@@H]2CCC(F)(F)C[C@H]2c2nn(-c3ccc(F)cn3)cc2-c2ccc(N3CCS(=N)(=O)CC3)cc2)CC1 [Example 20, (1R,2R)-N-(1-cyanocyclopropyl)-4,4-difluoro-2-(1-(5-fluoropyridin-2-yl)-4-(4-(1-imino-1-oxidothiomorpholino)phenyl)-1H-pyrazol-3-yl)cyclohexanecarboxamide]",6.81 nM,1820 nM
"N#CC1(NC(=O)[C@@H]2CCCC[C@H]2c2nn(-c3ccc(-n4cccn4)cc3)cc2-c2ccc(N3CCS(=O)(=O)CC3)cc2)CC1 [Example 123, (1R,2R)-2-(1-(4-(1H-pyrazol-1-yl)phenyl)-4-(4-(1,1-dioxidothiomorpholino)phen-yl)-1H-pyrazol-3-yl)-N-(1-cyanocyclopropyl)cyclohex-anecarboxamide]",0.96 nM,593 nM
"N#CC(CC(F)(F)F)NC(=O)[C@@H]1CC(F)(F)CC[C@H]1c1nn2ccccc2c1-c1ccc(N2CCS(=O)(=O)CC2)cc1 (single isomer, unassigned) [Example 74, (1R,2R)-N-((S or R)-1-cyano-3,3,3-trifluoropropyl)-2-(3-(4-(1,1-dioxidothiomorpholino)phen-yl)pyrazolo[1,5-a]pyridin-2-yl)-5,5-difluorocyclohexanecarbox-amide]",7.69 nM,252 nM
"N#CC1(NC(=O)[C@@H]2C[C@@H](F)CC[C@H]2c2nn(-c3ccc(F)cc3)cc2-c2ccc(N3CCS(=N)(=O)CC3)cc2)CC1 [Example 16, (1R,2R,5S)-N-(1-cyanocyclopropyl)-5-fluoro-2-(1-(4-fluorophenyl)-4-(4-(1-imino-1-oxidothiomorpholino)phenyl)-1H-pyrazol-3-yl)cyclohexanecarboxamide]",2.83 nM,2600 nM
"N#CC1(NC(=O)[C@@H]2CCCC[C@H]2c2nn3ccccc3c2-c2ccc(N3CCS(=O)(=O)CC3)cc2)CC1 [Example 21, (1R,2R)-N-(1-cyanocyclopropyl)-2-(3-(4-(1,1-dioxidothiomorpholino)phen-yl)pyrazolo[1,5-a]pyridin-2-yl)cyclohexanecarboxamide]",9.56 nM,6910 nM
"CN=S1(=O)CCN(c2ccc(-c3cn(-c4ccc(F)cn4)nc3[C@@H]3CC(F)(F)CC[C@H]3C(=O)NC(C)C#N)cc2)CC1 (single isomer, unassigned) [Example 25, (1R,2R)-N-((S or R)-1-cyanoethyl)-4,4-difluoro-2-(1-(5-fluoropyridin-2-yl)-4-(4-(1-(methylimino)-1-oxidothiomorpholino)phenyl)-1H-pyrazol-3-yl)cyclohexanecarboxamide]",0.52 nM,431 nM
"COc1ccccc1-n1cc(-c2ccc(N3CCS(=O)(=O)CC3)cc2)c([C@@H]2CCCC[C@H]2C(=O)NC2(C#N)CC2)n1 [Example 92, (1R,2R)-N-(1-cyanocyclopropyl)-2-(4-(4-(1,1-dioxidothiomorpholino)phen-yl)-1-(2-methoxyphenyl)-1H-pyrazol-3-yl)cyclohexanecarboxamide]",0.95 nM,484 nM
"CS(=O)(=O)c1ccc(-c2cn(-c3ccccc3)nc2C2CCC(F)(F)CC2C(=O)NCC#N)cc1 (racemic) [Example 76, (1R,2R and 1S,2S)-N-(cyanomethyl)-5,5-difluoro-2-(4-(4-(methylsulfonyl)phenyl)-1-phenyl-1H-pyrazol-3-yl)cyclohexanecarboxamide]",0.8 nM,11 nM
"N#CC1(NC(=O)[C@@H]2CCCC[C@H]2c2nn(-c3c(F)cccc3F)cc2-c2ccc(N3CCS(=O)(=O)CC3)cc2)CC1 [Example 133, (1R,2R)-N-(1-cyanocyclopropyl)-2-(1-(2,6-difluorophenyl)-4-(4-(1,1-dioxidothiomorpholino)phen-yl)-1H-pyrazol-3-yl)cyclohexanecarboxamide]",3.56 nM,2340 nM
"N#CC1(NC(=O)[C@@H]2CCC(F)(F)C[C@H]2c2nn(-c3ccc(F)cc3)cc2-c2ccc(N3CCS(=O)(=O)CC3)cc2)CC1 [Example 108, (1R,2R)-N-(1-cyanocyclopropyl)-2-(4-(4-(1,1-dioxidothiomorpholino)phen-yl)-1-(4-fluorophenyl)-1H-pyrazol-3-yl)-4,4-difluorocyclohexanecarbox-amide]",2.32 nM,1010 nM
"N#CC1(NC(=O)[C@@H]2CCCC[C@H]2c2nn(-c3ccc(C(F)(F)F)cn3)cc2-c2ccc(N3CCS(=O)(=O)CC3)cc2)CC1 [Example 143, (1R,2R)-N-(1-cyanocyclopropyl)-2-(4-(4-(1,1-dioxidothiomorpholino)phen-yl)-1-(5-(trifluoromethyl)pyridin-2-yl)-1H-pyrazol-3-yl)cyclohexanecarboxamide]",1.17 nM,395 nM
"N#CC1(NC(=O)[C@@H]2C[C@@H](F)CC[C@H]2c2nn(-c3ccc(F)cn3)cc2-c2ccc(N3CCS(=N)(=O)CC3)cc2)CC1 [Example 14, (1R,2R,5S)-N-(1-cyanocyclopropyl)-5-fluoro-2-(1-(5-fluoropyridin-2-yl)-4-(4-(1-imino-1-oxidothiomorpholino)phenyl)-1H-pyrazol-3-yl)cyclohexanecarboxamide]",2 nM,2020 nM
"Cc1ccc(-n2cc(-c3ccc(N4CCS(=O)(=O)CC4)cc3)c([C@@H]3CCCC[C@H]3C(=O)NC3(C#N)CC3)n2)cn1 [Example 167, (1R,2R)-N-(1-cyanocyclopropyl)-2-(4-(4-(1,1-dioxidothiomorpholino)phen-yl)-1-(6-methylpyridin-3-yl)-1H-pyrazol-3-yl)cyclohexanecarboxamide]",0.66 nM,602 nM
"N#CC1(NC(=O)[C@@H]2CCCC[C@H]2c2nn(-c3ccc(F)cc3)cc2-c2ccc(C(=O)N3CCNC(=O)C3)cc2)CC1 [Example 89, (1R,2R)-N-(1-cyanocyclopropyl)-2-(1-(4-fluorophenyl)-4-(4-(3-oxopiperazine-1-carbonyl)phenyl)-1H-pyrazol-3-yl)cyclohexanecarboxamide]",9.37 nM,989 nM
"C[C@@H](C#N)NC(=O)[C@@H]1C[C@@H](F)CC[C@H]1c1nn(-c2ccc(F)cn2)cc1-c1ccc(N2CCS(=N)(=O)CC2)cc1 [Example 60, (1R,2R,5S)-N-((S)-1-cyanoethyl)-5-fluoro-2-(1-(5-fluoropyridin-2-yl)-4-(4-(1-imino-1-oxidothiomorpholino)phenyl)-1H-pyrazol-3-yl)cyclohexanecarboxamide]",1.43 nM,674 nM
"N#CC1(NC(=O)[C@@H]2CC3CC3C[C@H]2c2nn(-c3ccc(F)cc3)cc2-c2ccc(N3CCS(=O)(=O)CC3)cc2)CC1 (single isomer, unassigned) [Example 4, (1R or 1S,3R,4R,6S or 6R)—N-(1-Cyanocyclopropyl)-4-(4-(4-(1,1-dioxidothiomorpholino)phenyl)-1-(4-fluorophenyl)-1H-pyrazol-3-yl)bicyclo[4.1.0]heptane-3-carboxamide]",0.93 nM,258 nM
"CN=S1(=O)CCN(c2ccc(-c3cn(-c4ccc(F)cn4)nc3[C@@H]3CC[C@H](F)C[C@H]3C(=O)N[C@@H](C)C#N)cc2)CC1 [Example 38, (1R,2R,5S)-N-((S)-1-cyanoethyl)-5-fluoro-2-(1-(5-fluoropyridin-2-yl)-4-(4-(1-(methylimino)-1-oxidothiomorpholino)phenyl)-1H-pyrazol-3-yl)cyclohexanecarboxamide]",1.14 nM,855 nM
"CN=S1(=O)CCN(c2ccc(-c3cn(-c4ncccc4F)nc3[C@@H]3CC(F)(F)CC[C@H]3C(=O)N[C@H](C#N)C(C)C)cc2)CC1 [Example 36, (1R,2R)-N-((S)-1-cyano-2-methylpropyl)-4,4-difluoro-2-(1-(3-fluoropyridin-2-yl)-4-(4-(1-(methylimino)-1-oxidothiomorpholino)phenyl)-1H-pyrazol-3-yl)cyclohexanecarboxamide]",8.79 nM,8180 nM
"CS(=O)(=O)C1CN(c2ccc(-c3cn(-c4ccc(F)cc4)nc3[C@@H]3CCCC[C@H]3C(=O)NC3(C#N)CC3)cc2)C1 [Example 94, (1R,2R)-N-(1-cyanocyclopropyl)-2-(1-(4-fluorophenyl)-4-(4-(3-(methylsulfonyl)azetidin-1-yl)phenyl)-1H-pyrazol-3-yl)cyclohexanecarboxamide]",2.57 nM,2780 nM
